{"source": "paper PMC6646405", "about": "“A quantitative, high-throughput method identifies protein–glycan interactions via mass spectrometry” (Communications Biology, 2019)", "molecular_target": "T1, human neuraminidase 3 (NEU3) (Homo sapiens, UniProt Q9UQ49)", "T1 construct": "made in house", "T1 sequence (Q9UQ49 1-428)": "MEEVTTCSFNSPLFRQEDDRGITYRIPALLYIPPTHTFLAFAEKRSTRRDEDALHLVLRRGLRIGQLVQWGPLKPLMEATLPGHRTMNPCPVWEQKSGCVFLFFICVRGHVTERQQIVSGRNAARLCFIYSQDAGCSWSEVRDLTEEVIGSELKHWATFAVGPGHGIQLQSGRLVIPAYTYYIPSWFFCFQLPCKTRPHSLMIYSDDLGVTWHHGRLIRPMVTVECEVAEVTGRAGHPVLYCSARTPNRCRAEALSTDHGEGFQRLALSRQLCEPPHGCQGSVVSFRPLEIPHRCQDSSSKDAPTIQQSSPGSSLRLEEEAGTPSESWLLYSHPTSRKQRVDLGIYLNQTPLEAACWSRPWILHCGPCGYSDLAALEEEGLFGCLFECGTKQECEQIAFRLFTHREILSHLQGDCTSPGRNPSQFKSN", "assay": "Time-resolved CUPRA enzyme kinetics, NEU3", "format": "biochemical", "procedure": "To apply CUPRA in this capacity, two or more substrates of interest are introduced, as their corresponding OS^mod, to a solution containing the desired CAZyme. Changes in substrate concentrations, as well as those of the corresponding enzyme products, are determined from the relative abundances of OS^mod-bound ^UniPproxy measured by time-resolved ESI-MS. Because of the manner in which the substrate and product concentrations are measured, the assay is insensitive to differences in their ESI-MS response factors and, consequently, independent of the nature of the chemical modification catalyzed by the enzyme. As a result, time-resolved CUPRA eliminates the need for calibration curves or internal standards, which are generally required with ESI-MS-based enzyme kinetics assays.\nTwo glycosyl hydrolases, human neuraminidase 2 (NEU2) and 3 (NEU3), which preferentially cleave α2-3-linked Neu5Ac residues, were used to illustrate the ease with which time-resolved CUPRA can establish substrate specificities. We incubated libraries of the Neu5Ac-containing OS^mod with NEU2 (Fig. 2d) or NEU3 (Fig. 2e) and monitored their conversion to the corresponding desialylated OS^mod products at pH 7 and 25 °C. […] All OS^mod containing terminal α2-3-linked Neu5Ac were substrates of NEU3, with initial rates that are 10–50% that of HMO03. […]", "data": [{"smiles": "CC(=O)N[C@H]1[C@H](O[C@@H]2[C@H](O[C@]3(C(=O)O)C[C@H](O)[C@@H](NC(C)=O)[C@H]([C@H](O)[C@@H](CO)O[C@]4(C(=O)O)C[C@H](O)[C@@H](NC(C)=O)[C@H]([C@H](O)[C@H](O)CO)O4)O3)[C@@H](O)[C@H](O[C@H]3[C@H](O)[C@@H](O)[C@H](N(CCOCCOCCNC(=O)[C@H](Cc4ccccc4)NC(=O)[C@H](Cc4ccccc4)NC(=O)CCCC(=O)NCCc4ccc(S(N)(=O)=O)cc4)C(C)=O)O[C@@H]3CO)O[C@@H]2CO)O[C@H](CO)[C@H](O)[C@@H]1O", "note": "[GA10, GalNAcβ1-4(Neu5Acα2-8 Neu5Acα2-3)Galβ1-4Glc-CL]", "values": [{"measurement": "substrate specificity of NEU3", "setting": "pH 7, 25 °C", "value": "substrates for NEU3"}, {"measurement": "Relative activity NEU3", "setting": "time-resolved CUPRA, 200 mM aqueous ammonium acetate pH 7, 25 °C, relative to HMO03", "value": 0.292}]}]}
